According to patent US20250188082A1, “Use of Hypoxanthine Compound In Preparation of Drug For Treating Pulmonary Fibrosis” (Sichuan Yiasuo Pharmaceutical Technology Co., Ltd., priority 2022, published 2025):
Read-outs that look alike come from different tables or passages of the source.

Key:
Type in all cases: in vivo, C57BL/6 mice
[1] = tested on: bleomycin-induced pulmonary fibrosis model; experiment: Comparison with comparative drugs: bleomycin-induced model, hydroxyproline and TGF-β; conditions: 120 mg/kg/d intragastric, twice every day, 14 days, from two weeks after model; Day 15
[2] = tested on: bleomycin-induced pulmonary fibrosis model; experiment: Early pulmonary fibrosis: bleomycin-induced model, dosing from one week after modelling; conditions: for Leucocyte / Lymphocyte / Neutrophil / Ashcroft scores: early pulmonary fibrosis, 120 mg/kg/d intragastric, 14 days, from one week after model; for Leucocyte / Lymphocyte / Neutrophil: blood, Day 15, twice every day; for Ashcroft scores: lung tissue HE staining
[3] = tested on: influenza B virus-induced pulmonary fibrosis model (influenza B (H7N9) virus); conditions: 120 mg/kg/d intragastric, 14 days; for Ashcroft scores: influenza B virus + bleomycin, lung tissue HE; for IL-1β / NF-κB / TNF-α / IL-6: serum, from two weeks after model; for IL-1β / NF-κB / TNF-α: influenza B (H7N9) + bleomycin; for IL-6: influenza B + bleomycin
[4] = tested on: Streptococcus pneumoniae-induced pulmonary fibrosis model; experiment: Streptococcus pneumoniae-induced pulmonary fibrosis model; conditions: for Leucocyte / Lymphocyte / Neutrophil / Ashcroft scores: Streptococcus pneumoniae + bleomycin, 120 mg/kg/d intragastric, 14 days; for Leucocyte / Lymphocyte / Neutrophil: blood, Day 15, 3 times every day, from one week after model; for Ashcroft scores: lung tissue HE staining
[5] = tested on: novel coronavirus-induced pulmonary fibrosis model (COVID-19 novel coronavirus strains); experiment: Novel coronavirus-induced pulmonary fibrosis model; conditions: 120 mg/kg/d intragastric, 14 days; for Ashcroft scores: novel coronavirus + bleomycin, lung tissue HE; for IL-1β / IL-6 / NF-κB / TNF-α: serum, COVID-19 novel coronavirus + bleomycin, from two weeks after model
From the text: (§1) Experimental method: an in-vivo novel coronavirus-induced pulmonary fibrosis model was established: C57BL/6 mice (with weights being 22-25 g) were randomly and evenly divided into a plurality of groups, including blank control group, model group, Nintedanib positive control group, hypoxanthine analogue A group, hypoxanthine analogue B group, hypoxanthine analogue C group, compound 1 group, a compound 2 group . . . compound 12 group, with 9 mice in each group. On Day 1, the mice in blank control group were instilled with normal saline nasally, and the mice in other groups were all infected with COVID-19 novel coronavirus strains (30 μL) through nasal instillation. On Day 2, the mice received 5 mg/kg bleomycin through tracheas to induce their pulmonary fibrosis. After the model was established for two weeks, the mice in each group were intragastrically administrated for intervention for consecutive 14 days; the mice in blank control group and model group intragastrically received the same dosage of normal saline as those in drug groups; the mice in Nintedanib positive control group received Nintedanib (120 mg/kg); the mice in hypoxanthine analogue A group, hypoxanthine analogue B group and hypoxanthine analogue C group respectively received hypoxanthine analogue A (120 mg/kg/d), hypoxanthine analogue B (120 mg/kg/d) and hypoxanthine analogue C (120 mg/kg/d); and the mice in compound 1 group, compound 2 group . . . compound 12 group respectively received compound 1 (120 mg/kg/d), compound 2 (120 mg/kg/d) . . . compound 12 (120 mg/kg/d) prepared in example 1. After administration for consecutive 14 days, the mice were observed every day, and their weights and death conditions were recorded. After administration, blood was taken from eyeballs for immediately detecting the expression levels of NF-κB, TNF-α, IL-1 and IL-6 in serum, and lung tissues were taken for HE detection and Ashcroft scoring.

[6] = tested on: influenza A virus-induced pulmonary fibrosis model (FM1 strain of influenza A (H1N1) virus); experiment: Influenza A virus-induced pulmonary fibrosis model; conditions: 120 mg/kg/d intragastric, 14 days; for Ashcroft scores: influenza A virus + bleomycin, lung tissue HE; for IL-1β / IL-6 / NF-κB / TNF-α: serum, influenza A (H1N1) FM1 + bleomycin, from two weeks after model
From the text: as §1, with “an in-vivo influenza A virus-induced pulmonary fibrosis” for “an in-vivo novel coronavirus-induced pulmonary fibrosis”, “1 group, compound 2” for “1 group, a compound 2”, “infected with a FM1 strain of an influenza A (H1N1) virus 30 (μL) through nasal” for “infected with COVID-19 novel coronavirus strains (30 μL) through nasal”, “dosage of the normal saline” for “dosage of normal saline”

COc1ncnc2c1ncn2C(C)C [Hypoxanthine analogue C, reference compound]
Hydroxyproline in bronchoalveolar lavage fluids [1]: 1.12 ± 0.15 µg/mg
Hydroxyproline in lung tissues [1]: 2.85 ± 0.25 µg/mg
TGF-β in bronchoalveolar lavage fluids [1]: 7.42 ± 1.4 µg/L
TGF-β in lung tissues [1]: 63.83 ± 7.52 µg/L
Leucocyte ([2]; 120 mg/kg/day): 50.11 10^9/L
Lymphocyte ([2]; 120 mg/kg/day): 50.06 10^9/L
Neutrophil ([2]; 120 mg/kg/day): 37.04 10^9/L
Ashcroft scores ([2]; 120 mg/kg/day): 5.46
inhibition (anti-inflammatory) effect on leucocytes, neutrophils and lymphocytes in blood ([2]; mice with early pulmonary fibrosis, result in words): obviously inferior
Ashcroft scores ([3]; 120 mg/kg/day): 6.15
IL-1β ([3]; 120 mg/kg/day): 241.9 pg/mL
NF-κB ([3]; 120 mg/kg/day): 632.4 pg/mL
TNF-α ([3]; 120 mg/kg/day): 198.9 pg/mL
IL-6 ([3]; 120 mg/kg/day): 194.9 pg/mL
Leucocyte ([4]; 120 mg/kg/day): 149.35 10^9/L
Lymphocyte ([4]; 120 mg/kg/day): 90.12 10^9/L
Neutrophil ([4]; 120 mg/kg/day): 82.11 10^9/L
Ashcroft scores ([4]; 120 mg/kg/day): 6.21
inhibition (anti-inflammatory) effect on leucocytes, neutrophils and lymphocytes in blood ([4]; mice with Streptococcus pneumoniae-induced pulmonary fibrosis, result in words): obviously inferior
Ashcroft scores ([5]; 120 mg/kg/day): 6.71
IL-1β ([5]; 120 mg/kg/day): 572.7 pg/mL
IL-6 ([5]; 120 mg/kg/day): 543.7 pg/mL
NF-κB ([5]; 120 mg/kg/day): 739.2 pg/mL
TNF-α ([5]; 120 mg/kg/day): 542.4 pg/mL
Ashcroft scores ([6]; 120 mg/kg/day): 6.09
IL-1β ([6]; 120 mg/kg/day): 338.1 pg/mL
IL-6 ([6]; 120 mg/kg/day): 450.0 pg/mL
NF-κB ([6]; 120 mg/kg/day): 782.1 pg/mL
TNF-α ([6]; 120 mg/kg/day): 333.1 pg/mL

CC(C)Oc1ncnc2ncn(C(C)C)c12 [Compound 4]
Hydroxyproline in bronchoalveolar lavage fluids [1]: 0.71 ± 0.08 µg/mg
Hydroxyproline in lung tissues [1]: 1.29 ± 0.08 µg/mg
TGF-β in bronchoalveolar lavage fluids [1]: 3.95 ± 0.14 µg/L
TGF-β in lung tissues [1]: 24.58 ± 1.95 µg/L
Leucocyte [2]: 4.29 10^9/L
Lymphocyte [2]: 5.56 10^9/L
Neutrophil [2]: 1.31 10^9/L
Ashcroft scores [2]: 1.18
Ashcroft scores [3]: 1.17
IL-1β [3]: 27.6 pg/mL
NF-κB [3]: 29.3 pg/mL
TNF-α [3]: 73.9 pg/mL
IL-6 [3]: 66.7 pg/mL
Leucocyte [4]: 6.99 10^9/L
Lymphocyte [4]: 6.84 10^9/L
Neutrophil [4]: 1.51 10^9/L
Ashcroft scores [4]: 1.29
Ashcroft scores [5]: 1.50
IL-1β [5]: 37.2 pg/mL
IL-6 [5]: 64.5 pg/mL
NF-κB [5]: 25.2 pg/mL
TNF-α [5]: 65.9 pg/mL
Ashcroft scores [6]: 1.29
IL-1β [6]: 29.6 pg/mL
IL-6 [6]: 65.1 pg/mL
NF-κB [6]: 27.4 pg/mL
TNF-α [6]: 89.8 pg/mL

CC(=O)Oc1ncnc2c1ncn2C(C)C [Compound 11]
Hydroxyproline in bronchoalveolar lavage fluids [1]: 0.75 ± 0.05 µg/mg
Hydroxyproline in lung tissues [1]: 1.43 ± 0.11 µg/mg
TGF-β in bronchoalveolar lavage fluids [1]: 4.02 ± 0.15 µg/L
TGF-β in lung tissues [1]: 23.98 ± 2.19 µg/L
Leucocyte [2]: 4.09 10^9/L
Lymphocyte [2]: 5.20 10^9/L
Neutrophil [2]: 1.10 10^9/L
Ashcroft scores [2]: 1.08
Ashcroft scores [3]: 1.15
IL-1β [3]: 26.8 pg/mL
NF-κB [3]: 31.6 pg/mL
TNF-α [3]: 73.5 pg/mL
IL-6 [3]: 65.3 pg/mL
Leucocyte [4]: 6.29 10^9/L
Lymphocyte [4]: 6.21 10^9/L
Neutrophil [4]: 1.81 10^9/L
Ashcroft scores [4]: 1.28
Ashcroft scores [5]: 1.31
IL-1β [5]: 37.2 pg/mL
NF-κB [5]: 26.7 pg/mL
TNF-α [5]: 69.0 pg/mL
Ashcroft scores [6]: 1.26
IL-1β [6]: 27.9 pg/mL
IL-6 [6]: 64.6 pg/mL
NF-κB [6]: 26.6 pg/mL
TNF-α [6]: 88.7 pg/mL

COc1ncnc2c1ncn2C(C)C [Compound 7]
Hydroxyproline in bronchoalveolar lavage fluids [1]: 0.69 ± 0.08 µg/mg
Hydroxyproline in lung tissues [1]: 1.42 ± 0.14 µg/mg
TGF-β in bronchoalveolar lavage fluids [1]: 4.02 ± 0.15 µg/L
TGF-β in lung tissues [1]: 25.15 ± 2.53 µg/L
Leucocyte ([2]; 120 mg/kg/day): 4.19 10^9/L
Lymphocyte ([2]; 120 mg/kg/day): 5.44 10^9/L
Neutrophil ([2]; 120 mg/kg/day): 1.23 10^9/L
Ashcroft scores ([2]; 120 mg/kg/day): 1.11
Ashcroft scores [3]: 1.20
IL-1β [3]: 27.9 pg/mL
NF-κB [3]: 33.4 pg/mL
TNF-α [3]: 74.1 pg/mL
IL-6 [3]: 70.3 pg/mL
Leucocyte ([4]; 120 mg/kg/day): 6.39 10^9/L
Lymphocyte ([4]; 120 mg/kg/day): 7.72 10^9/L
Neutrophil ([4]; 120 mg/kg/day): 1.88 10^9/L
Ashcroft scores ([4]; 120 mg/kg/day): 1.29
Ashcroft scores [5]: 1.15
IL-1β [5]: 39.9 pg/mL
IL-6 [5]: 66.4 pg/mL
NF-κB [5]: 24.6 pg/mL
TNF-α [5]: 67.5 pg/mL
Ashcroft scores [6]: 1.28
IL-1β [6]: 29.0 pg/mL
IL-6 [6]: 65.3 pg/mL
NF-κB [6]: 26.4 pg/mL
TNF-α [6]: 91.2 pg/mL
